Measurements: US12569440B2, “Solid formulation of a 1,2,4-oxadiazole derivative” (ABAXYS THERAPEUTICS, priority 2019, dated 2026)

Experiments:
[1] = Formulation study: mixing Compound A with liquid or solid acids, resulting composition and physical stability; assay type: physicochemical; conditions: Compound A alone, before mixing
Method: In a round bottom flask, to a solution of A in anhydrous Et2O (6 mL/mmol) under argon atmosphere, the acid was added dropwise, as a pure liquid or in anhydrous Et2O (3 mL/mmol) solution. The mixture was allowed to stand for 3 h. The product was then isolated by evaporation of the solvent and was dried under vacuum.
Two different net grinding procedures were used: • Solid mixing 1: In an Eppendorf, A (200 mg, 0.5 mmol) and the acid were added. The Eppendorf was then placed in the grinding device (Retsch MM400) and allowed to stir for 90 min at 30 Hz. • Solid mixing 2: In a mortar, A (200 mg, 0.5 mmol) and acid were added and then manually grinded with a pestle.

[2] = Specific surface area by BET analysis (nitrogen adsorption-desorption at 77 K); assay type: physicochemical; conditions: for BET surface (specific surface area): nitrogen adsorption at 77 K, 0.05-0.20 P/P0
Method: Specific surface area was measured by Nitrogen adsorption-desorption analyses at 77 K with a volumetric adsorption analyser (Micromeritics 3Flex physisorption apparatus). The Brunauer—Emmet—Teller (BET) method was applied in the 0.05-0.20 P /PO range to calculate the specific surface area.

For FC(F)(F)c1ccc(-c2noc(CN3CCCC(CN4CCOCC4)C3)n2)cc1 (stereo not shown) [Compound A], the “physical form of free compound” value [1] was “oil”.

For O=C1NS(=O)(=O)c2ccccc21 [Saccharin (after grinding), 1,1-dioxo-1,2-benzothiazol-3-one], the “BET surface (specific surface area)” value [2] was 6.7 m^2/g and the “change of specific surface area (BET)” value ([2]; saccharin after grinding vs commercial, A-2SA vs saccharin alone after same grinding procedure) was “about −30%”.

For O=C1NS(=O)(=O)c2ccccc21 [Saccharin, 1,1-dioxo-1,2-benzothiazol-3-one], the “BET surface (specific surface area)” value ([2]; listed as Saccharin (commercial)) was 9.9 m^2/g.
